# In patent US10369187B2, “Peptide regulators of JNK family kinases” (Vanderbilt University, priority 2017, dated 2019):
# T1: MKK4 (Homo sapiens, UniProt P45985)
# T1 sequence (P45985 1-399): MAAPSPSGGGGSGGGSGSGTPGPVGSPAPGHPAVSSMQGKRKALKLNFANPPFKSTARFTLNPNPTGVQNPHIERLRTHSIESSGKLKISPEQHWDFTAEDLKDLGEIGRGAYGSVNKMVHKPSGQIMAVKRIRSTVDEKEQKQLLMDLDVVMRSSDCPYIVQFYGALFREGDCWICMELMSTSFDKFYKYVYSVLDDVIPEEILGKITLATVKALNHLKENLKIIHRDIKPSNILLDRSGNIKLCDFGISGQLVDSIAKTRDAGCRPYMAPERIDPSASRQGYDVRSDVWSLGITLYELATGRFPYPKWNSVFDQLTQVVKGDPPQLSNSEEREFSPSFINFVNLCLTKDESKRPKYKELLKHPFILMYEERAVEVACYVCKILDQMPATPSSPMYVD
# Experiments:
# [1] = test system: ASK1-MKK4/7-JNK3 signaling cascade; experiment: In cell JNK3 activation assay (co-expression with HA-ASK1 and HA-JNK3α2, phospho-JNK Western blot); assay type: cell-based, African green monkey; settings: for in cell JNK3α2 activation (phospho-JNK3 densitometry): Example 2, YFP/Venus constructs with HA-ASK1, HA-JNK3α2 in COS7 cells; for JNK3 phosphorylation in cells, HA-tagged arrestins and separated domains: co-expressed with ASK1 and JNK3 in COS7 cells
# Protocol: COS-7 African green monkey cells were maintained in DMEM supplemented with 10% heat-inactivated FBS (Invitrogen), penicillin, and streptomycin at 37° C. in a humidified incubator with 5% CO2. The cells were plated at 80-90% confluence and transfected using Lipofectamine 2000 (Invitrogen) according to the manufacturer's instructions. Cells were used 48 h post-transfection and serum-starved overnight before experiments.
# COS-7 cells were incubated with phosphatase inhibitors (50 mM NaF and 10 mM Na3VO4) in serum-free medium for 15 min at 37° C.; washed with cold PBS; and lysed with SDS lysis buffer containing 1% SDS, 10 mM Tris (pH7.4), 10 mM NaF, 100 μM Na3VO4, 2 mM EDTA, 2 mM benzamidine and 1 mM PMSF. JNKs activity was assayed by Western blotting using an antibody specific for phosphorylated JNK to detect phosphorylated (active) JNKs^17,20,23. Whole cell lysates were boiled for 5 min and centrifuged at 10,000×g for 10 min, and the supernatants were used for Western blotting. Protein was measured using the Bio-Rad Coomassie Blue assay. The proteins were resolved on 8% SD S-PAGE and transferred to PVDF membrane (Millipore, Bedford, Mass.). Blots were incubated with the primary antibodies (Cell Signaling Technology, Inc) anti-phospho-JNK, anti-JNK, anti-HA (6E2) (1:1000 to 1:5000), followed by appropriate HRP-conjugated secondary antibodies. Protein bands were detected by enhanced chemiluminescence (ECL, Pierce), followed by exposure to x-ray film. To quantify phospho-JNKs, serial dilutions of anisomycin (1 μg/ml)-stimulated HEK-A cell lysates were used to ensure that all samples were in linear range. The values for these proteins are expressed in arbitrary units.
# The JNK3 activation was next tested in cells (See FIG. 7). COS7 cells were transfected with HA-ASK1, HA-JNK3α2, and YFP-arrestin constructs to measure in cell JNK3α2 activation. Phospho-JNK3 is shown as the uppermost band in the Western analysis, and was analyzed by densitometric quantification using Quantity One software (quantification in bottom panel). […] The data were statistically analyzed by ANOVA with protein as the main factor. Significance of the difference from control (p values) is indicated.
# In Cell JNK3 Activation Assay COS7 African green monkey cells were sustained in DMEM solution containing 10% heat-inactivated FBS (Invitrogen), penicillin, and streptomycin at 37° C. and 5% CO2. Cells were transfected at 90-100% confluency in 6-well plates with pcDNA3-HA-ASK1 (0.4 ug), pcDNA3-HA-JNK3α2 (0.2 ug), and pcDNA3-Venus arrestin constructs (0.2-0.6 ug) at a 1:2 ratio of DNA:Lipofectamine 2000 (Invitrogen). At 48 hrs post-transfection, the cells were incubated with phosphatase inhibitors (20 mM NaF and 1 mM Na3VO4) in PBS for 15 mins, washed twice with cold PBS, and lysed using 50 mM Tris (pH 7.8), 2 mM EDTA, 250 mM NaCl, 10% Glycerol, 0.5% NP-40, 2 mM benzamide, and 1 mM PMSF. Protein concentration was measured using the Bio-Rad Quick Start™ Bovine Serum Albumin (BSA) Standard Set. The proteins were subjected to 10% SDS-PAGE and transferred to PVDF membrane (Millipore, Bedford, Mass.). Membranes were incubated with respective primary antibodies (Cell Signaling Technology, Inc.) anti-ASK1 (#3762S), anti-phospho-JNK (#9251), anti-SAPK/JNK (#9252P), anti-GST (#2625), or anti-HA (#3724), followed by the appropriate HRP-conjugated secondary antibodies. Bands were detected by x-ray film using enhanced chemiluminescence (ECL, Pierce) and quantification was done using the software Quantity One (BioRad).
# [2] = test system: ARR3-dependent activation of the JNK pathway; experiment: Suppression of ARR3-dependent JNK activation (peptide co-expressed with full-length ARR3, Western blot); assay type: cell-based; settings: for JNK activity on co-expression with full-length ARR3, comparison of shorter peptides: Western blot
# Source text: FIG. 9. The ARR3-derived T1A15 peptide is capable of reducing ARR3-dependent activation of the JNK pathway. (A) Dose-dependent action of Venus-T1A15 on the JNK activity. Upper blot panel—T1A15 was expressed at increasing concentration with full-length ARR3. Cells expressing GFP (negative control) and full-length ARR3 only (positive control) are shown for comparison. Note the reduced activity of HA-JNK3α2 expressed in the cells as well as that of endogenous INK isoforms (p54 and p46 bands). The lower panels show corresponding expression of GFP, full-length ARR3 and increasing concentrations of Venus-T1A15. (B) Comparison of the activity of shorter ARR3-derived peptides. Three shorter peptides, T1A15, T1A14, and T1A13, were co-expressed with full-length ARR3, and the INK activity assessed by western blot.
# First, the action of arrestin-3-derived peptides expressed in cultured cells on JNK3 activity was investigated.
# WT hemiparkinsonian mice = experiment: L-DOPA-induced rotations in hemiparkinsonian WT mice; assay type: in vivo, mouse; settings: peptide expressed under CMV promoter in striatal neurons, versus GFP
# Source text: FIG. 11. Inhibition of L-DOPA-induced rotations in WT mice by ARR3-derived peptide T1A15 inhibiting JNK3. The arrestin-3-derived peptide T1A15 expressed under CMV promoter in striatal neurons inhibited rotations in WT mice as compared to WT mice expressing GFP.
# (§1) The mice were rendered hemiparkinsonian by the unilateral injection of the dopaminergic neurotoxin 6-hydroxydopamine. Such animals develop contralateral rotations of increasing frequency in response to repeated administration of L-DOPA. ARR3 knockout mice (KO) have lower propensity than wild type (WT) animals to such rotations.
# MKK4 = molecular target: T1, MKK4; experiment: MBP pull-down of purified MKK4; assay type: binding; settings: MBP pull-down, purified proteins
# Protocol: T1A was expressed in E. coli as an MBP-fusion and purified it on an amylose column^23. The ability of purified GST-MKK4 or GST-MKK7 (FIG. 1A) to bind MBP-T1A immobilized on an amylose column was tested in an in vitro pull-down assay, where MBP and MBP-arrestin-3 served as negative and positive controls, respectively (FIG. 1B). MBP-T1A, but not control MBP, effectively retained both kinases (FIG. 1B). […] Next, it was tested whether T1A binds the uppermost kinase in the cascade, ASK1. Because ASK1 is not available in purified form, HA-tagged ASK1 and YFP-tagged T1A (using YFP as a control) were co-expressed in COS7 cells, lysed the cells, and immunoprecipitated YFP constructs with anti-GFP antibody (FIG. 1C).
# To make MBP-fusions containing arrestin-2/3 elements, the cDNAs encoding arrestin fragments were subcloned into pMal-p2T (generous gift from Dr. Keiji Tanaka, Tokyo Institute of Medical Science) between Eco RI and Xho I sites in frame with MBP, as described^23. MBP-Arr3 (full-length arrestin-3) was created by subcloning the corresponding cDNA into pMal-p2T between Eco RI and Not I sites^23. All MBP-arrestin-3 fusion proteins contained the same […] (SEQ ID NO:29) linker between MBP and arrestin-3 or its fragments. The MBP protein used as negative control was purified using empty pMal-p2T vector containing the same linker with 10 additional residues: […] (SEQ ID NO:30). MBP fusions were purified, as described^23. MBP pull-down was performed, as described^23. Briefly, Indicated MBP fusions (10-30 μg in 50 μL 20 mM Tris/150 mM NaCl) were immobilized on amylose resin (25 μL, 50% slurry, New England Biolabs) for 1 h at 4° C. with slight rotation. Purified, as described^40, MKK4/7 (10 μg in 50 μL 20 mM Tris/150 mM NaCl) were added to the immobilized MBP fusions and rotated gently for 2 h at 4° C. Samples were transferred to centrifuge filters (Durapore®-PVDF-0.65 μm), washed three times with 50 mM HEPES-Na, pH 7.3, 150 mM NaCl. The proteins were eluted by 100 μl of elution buffer (wash buffer containing 50 mM maltose) by gentle rotation for 5 min at 4° C. Eluates were analyzed by SDS-PAGE and Western blotting.
# MKK4-JNK3 module = MKK4-JNK3 module (Homo sapiens, UniProt P45985+P53779); settings: previously found, reference 20; cited from earlier work
# Chain of MKK4-JNK3 module (P53779 whole entry, one chain of several): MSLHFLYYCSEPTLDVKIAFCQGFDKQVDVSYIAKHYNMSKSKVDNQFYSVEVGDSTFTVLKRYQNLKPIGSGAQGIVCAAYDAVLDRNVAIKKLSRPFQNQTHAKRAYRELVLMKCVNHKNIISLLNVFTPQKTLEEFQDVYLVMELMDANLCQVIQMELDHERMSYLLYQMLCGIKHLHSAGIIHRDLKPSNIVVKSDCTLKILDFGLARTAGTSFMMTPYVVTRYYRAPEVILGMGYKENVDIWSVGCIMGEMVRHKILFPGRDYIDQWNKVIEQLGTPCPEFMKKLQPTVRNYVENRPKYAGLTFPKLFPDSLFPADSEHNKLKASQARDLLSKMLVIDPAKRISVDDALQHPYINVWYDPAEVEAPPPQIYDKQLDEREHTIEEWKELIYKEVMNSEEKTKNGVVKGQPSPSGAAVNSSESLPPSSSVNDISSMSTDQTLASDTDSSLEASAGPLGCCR
# MKK7-JNK3 module = MKK7-JNK3 module (Homo sapiens, UniProt O14733+P53779); settings: previously found, reference 20; cited from earlier work
# Chain of MKK7-JNK3 module (O14733 whole entry): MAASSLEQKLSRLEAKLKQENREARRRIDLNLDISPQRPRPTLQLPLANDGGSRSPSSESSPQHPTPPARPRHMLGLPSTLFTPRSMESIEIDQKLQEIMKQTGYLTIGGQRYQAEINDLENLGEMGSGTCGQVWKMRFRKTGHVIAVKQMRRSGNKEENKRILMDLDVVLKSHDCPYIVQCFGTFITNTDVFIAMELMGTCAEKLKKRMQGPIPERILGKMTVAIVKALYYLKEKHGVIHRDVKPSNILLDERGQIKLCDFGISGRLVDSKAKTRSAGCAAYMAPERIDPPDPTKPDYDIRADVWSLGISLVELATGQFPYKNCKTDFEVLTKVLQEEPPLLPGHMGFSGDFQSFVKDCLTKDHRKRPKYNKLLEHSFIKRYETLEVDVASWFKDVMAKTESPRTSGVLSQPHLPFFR
# Chain of MKK7-JNK3 module (P53779 whole entry): as the sequence (P53779 whole entry, one chain of several) above
# [3] = test system: hemiparkinsonian ARR3 KO mice; experiment: L-DOPA-induced rotations in hemiparkinsonian ARR3 KO mice; assay type: in vivo, mouse
# Protocol: FIG. 10. Rescue of L-DOPA-induced rotations in ARR3 KO mice by T1A16. Data are shown as means±S.E.M. Mice were pre-tested for L-DOPA-induced rotations before receiving lentiviruses. Respective lentiviruses were injected into the dorsolateral striatum of ARR3 KO mice. WT mice received GFP. […] In contrast, selective expression of T1A16 in striatopallidal MSNs under control of the enkephaline (ENK) promoter was ineffective. […] Significance levels are by Bonferroni post hoc test across all testing sessions.
# Next, arrestin-3-derived peptides T1A16 and T1A15 were investigated for activity in the animal model of L-DOPA-induced dyskinesia. It was shown that the peptides expressed as Venus fusions in the motor striatum of hemiparkinsonian mice via lentivirus-mediated gene transfer modulate the manifestations of L-DOPA-induced dyskinesia (LID). The mice lacking ARR3 have reduced LID, and restoration of ARR3 into the motor striatum via lentivirus-mediated gene transfer rescues LID in these animals.
# as §1
molecule,measurement,setting,value
TRVFKKSSPNCKLTV (bovine) [T1A15],in cell JNK3α2 activation (phospho-JNK3 densitometry),[1],inhibit JNK3 activation
same,ARR3-dependent JNK activation at increasing peptide expression,[2]; Venus-T1A15 co-expressed with full-length ARR3,reducing arrestin-3-dependent activation of JNK3 as well as other JNK isoforms in a dose dependent manner
same,"JNK activity on co-expression with full-length ARR3, comparison of shorter peptides",[2],effectively suppressed
same,L-DOPA-induced rotations in WT mice,WT hemiparkinsonian mice,able to suppress the rotational behavior
"arrestin-3: full-length arrestin-3 (bovine) protein, scaffold of ASK1-MKK4/7-JNK3 cascade",interaction with MKK4 compared with MKK7,MKK4,stronger interaction with MKK4 than with MKK7
same,in cell JNK3α2 activation (phospho-JNK3 densitometry),[1],facilitates JNK3 activation
same,"JNK3 phosphorylation in cells, YFP fusions",[1]; YFP fusions co-expressed with JNK3 and ASK1 in COS7 cells,increased the level of JNK3 phosphorylation
same,"JNK3 phosphorylation in cells, HA-tagged arrestins and separated domains",[1],significantly increases JNK3 phosphorylation in cells
same,"JNK activity on co-expression with full-length ARR3, comparison of shorter peptides",[2],induced the JNK activation
same,optimal concentration for scaffolding MKK4-JNK3 module,MKK4-JNK3 module,~0.6 µM
same,optimal concentration for scaffolding MKK7-JNK3 module,MKK7-JNK3 module,~6 µM
KKSSPNCKLTVYLG (bovine) [T1A14],"JNK activity on co-expression with full-length ARR3, comparison of shorter peptides",[2],marginally effective
VFKKSSPNCKLTVYLG (bovine) [T1A16],in cell JNK3α2 activation (phospho-JNK3 densitometry),[1],facilitates JNK3 activation
same,JNK3 activation at increasing peptide expression,"[1]; Example 3, T1A16-Venus expressed in Cos7 cells",dose-dependently activates JNK3
same,"L-DOPA-induced rotations in ARR3 KO mice, expression in striatonigral MSNs","[3]; lentivirus, dynorphine (DYN) promoter",fully rescued rotations in A3KO mice
same,"L-DOPA-induced rotations in ARR3 KO mice, expression in striatopallidal MSNs","[3]; lentivirus, enkephaline (ENK) promoter",ineffective
same,L-DOPA-induced rotations in ARR3 KO mice,"[3]; peptide expressed in striatum via lentivirus, 6-hydroxydopamine lesion",fully restores rotations in ARR3 KO mice to the level of that in WT mice
VFKKSSPNCKLTV (bovine) [T1A13],"JNK activity on co-expression with full-length ARR3, comparison of shorter peptides",[2],no effect
"arrestin-2: full-length non-visual arrestin-2 protein, does not promote JNK3 activation (protein, UniProt P17870 1-418, looked up, full-length) MGDKGTRVFKKASPNGKLTVYLGKRDFVDHIDLVEPVDGVVLVDPEYLKERRVYVTLTCAFRYGREDLDVLGLTFRKDLFVANVQSFPPAPEDKKPLTRLQERLIKKLGEHAYPFTFEIPPNLPCSVTLQPGPEDTGKACGVDYEVKAFCAENLEEKIHKRNSVRLVIRKVQYAPERPGPQPTAETTRQFLMSDKPLHLEASLDKEIYYHGEPISVNVHVTNNTNKTVKKIKISVRQYADICLFNTAQYKCPVAMEEADDTVAPSSTFCKVYTLTPFLANNREKRGLALDGKLKHEDTNLASSTLLREGANREILGIIVSYKVKVKLVVSRGGLLGDLASSDVAVELPFTLMHPKPKEEPPHREVPEHETPVDTNLIELDTNDDDIVFEDFARQRLKGMKDDKEEEEDGTGSPRLNDR","JNK3 phosphorylation in cells, HA-tagged arrestins and separated domains",[1],does not
